In patent US9187406B2 (The Research Foundation of State University of New York, priority 2009, dated 2015):
Like-named read-outs stand apart in the source and are kept apart here.

Legend:
[1] = Extractability/recovery from human serum by HPLC; details: human
Method: Detection of compounds & extractability/recovery from human serum (for future use to determine in vivo pharmacokinetics) was achieved using HPLC. The HPLC detection method is briefly described herein. 50 μl of buffer or human serum containing 166.67 μM, 16.67 μM and 1.67 μM of the compounds were incubated with 100 μl pre-cooled (−10° C.) extraction solvent containing CAN-MeOH-0.5M oxalic acid at a ratio of 60:30:10. The mixture was vortexed and centrifuged at 10,000 rpm for 10 min. The supernatant was then aliquoted and injected into an HPLC for analysis. Stock solutions of the compounds were made 100× in DMSO, then further diluted with buffer or serum.

[2] = tested on: diabetic rats; assay: Diabetic rat model, 1-week oral treatment: diabetic adverse events; format: in vivo; details: 100 mg/kg oral once/day for 7 days, n = 6
[3] = Diabetic rat model, 3-week oral treatment: blood glucose and hemoglobin A1c; format: in vivo; details: diabetic rats, 100 mg/kg and 500 mg/kg oral daily, 3 weeks
Method: (§1) At the end of the treatment protocol, the rats were sacrificed, blood samples were collected, and whole skin (except over limbs) and gingiva were dissected (the skin, because of ample quantities of tissue were analyzed for each rat separately; the gingiva, because of the tiny amounts that could be harvested per rat, were pooled for each experimental group, as prescribed previously for tetracycline studies (30). In addition, the jaw bones were collected, defleshed, and bone loss around the teeth analyzed morphometrically as described previously (42, 43).

[4] = tested on: human monocytes; assay: Cytotoxicity in human monocytes (MTS); format: cell-based
[5] = molecular target: purified human PMN MMP-8 (Homo sapiens (Human), UniProt P22894); assay: MMP-8 inhibition, synthetic octapeptide substrate, tripeptide product by HPLC; format: biochemical
purified human PMN MMP-8, sequence (P22894 101-467): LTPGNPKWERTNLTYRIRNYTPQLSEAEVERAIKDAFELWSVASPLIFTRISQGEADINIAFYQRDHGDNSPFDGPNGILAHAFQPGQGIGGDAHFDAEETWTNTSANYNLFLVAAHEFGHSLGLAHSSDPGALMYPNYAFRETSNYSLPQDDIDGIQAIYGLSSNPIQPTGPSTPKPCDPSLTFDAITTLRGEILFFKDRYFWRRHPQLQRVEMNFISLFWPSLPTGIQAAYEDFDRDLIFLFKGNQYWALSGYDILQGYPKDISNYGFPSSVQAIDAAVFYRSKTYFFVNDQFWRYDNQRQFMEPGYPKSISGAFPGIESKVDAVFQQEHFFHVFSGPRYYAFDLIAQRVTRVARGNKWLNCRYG

[6] = molecular target: MMP-9 (human leukocyte gelatinase) (Homo sapiens (Human), UniProt P14780); assay: MMP-9 inhibition in vitro, octapeptide/HPLC; format: biochemical
MMP-9 (human leukocyte gelatinase), sequence (P14780 94-707): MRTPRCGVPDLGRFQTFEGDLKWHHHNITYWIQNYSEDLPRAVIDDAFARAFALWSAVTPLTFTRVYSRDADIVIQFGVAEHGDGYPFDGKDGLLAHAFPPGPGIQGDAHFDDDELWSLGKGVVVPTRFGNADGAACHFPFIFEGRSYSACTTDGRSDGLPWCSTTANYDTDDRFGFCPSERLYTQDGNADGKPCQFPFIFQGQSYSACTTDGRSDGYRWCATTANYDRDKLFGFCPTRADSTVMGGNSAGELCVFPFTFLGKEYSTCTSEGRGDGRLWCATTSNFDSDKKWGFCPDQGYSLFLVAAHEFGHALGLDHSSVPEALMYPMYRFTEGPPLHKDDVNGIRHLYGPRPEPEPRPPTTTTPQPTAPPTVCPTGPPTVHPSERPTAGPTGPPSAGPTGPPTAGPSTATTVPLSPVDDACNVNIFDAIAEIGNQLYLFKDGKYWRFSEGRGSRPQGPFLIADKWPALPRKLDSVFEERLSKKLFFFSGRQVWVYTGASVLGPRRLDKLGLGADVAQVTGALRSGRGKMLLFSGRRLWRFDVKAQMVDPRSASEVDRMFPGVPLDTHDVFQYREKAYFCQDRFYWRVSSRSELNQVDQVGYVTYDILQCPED
From the text: In contrast all three chemically-modified curcumins at 100 μm final concentration inhibited gelatinase activity by 68-100% (FIG. 6 and Table 6).

[7] = molecular target: T1, MMP-9 (92 kDa gelatinase) (Rattus norvegicus (Rat), UniProt P50282); assay: Diabetic rat model, 1-week oral treatment: plasma MMP-9 by gelatin zymography; format: in vivo; details: diabetic rats, 100 mg/kg oral once/day for 7 days
[8] = molecular target: MMP-2 (gelatinase A) (Rattus norvegicus (Rat), UniProt P33436); assay: Diabetic rat model, 3-week oral treatment: gingival MMP-2 by gelatin zymography; format: in vivo; details: diabetic rats, oral daily, 3 weeks
Method: as §1
(§2) This appearance of MMP-9 only in the gingiva (FIG. 10), but not the skin (FIG. 12), of the diabetic rats is likely the result of the oral bacteria inducing inflammation in the gingiva of these immune-suppressed UD rats, whereas the skin is not exposed to this onslaught of bacteria particularly the anaerobic gram-negative bacteria in the mouth that cause periodontal and gingival inflammation.

[9] = tested on: IL-1β; assay: Diabetic rat model, 3-week oral treatment: gingival IL-1β by ELISA; format: in vivo; details: 3 weeks
Method: as §1

[10] = molecular target: T1, MMP-9 (92 kDa gelatinase); assay: Diabetic rat model, 3-week oral treatment: gingival MMP-9 by gelatin zymography; format: in vivo; details: diabetic rats, 100 mg/kg and 500 mg/kg oral daily, 3 weeks
Method: as §1, §2

[11] = tested on: neonatal rat ventricular myocytes; assay: Hydrogen peroxide induced LDH release; format: cell-based; details: 10 μM, H2O2 100 μM
Method: (§3) Test compounds and concentrations (MMP inhibitors, MMPi): • 1. GM-6001: 10 μM • 2. ONO-4817: 10 μM • 3.
Neonatal rat ventricular myocytes, serum starved for 24 h, were treated with the inhibitors 1 h prior to the addition of 100 μM of hydrogen peroxide (Sigma). LDH release in the conditioned media was quantified using CytoTox-ONE Homogeneous Membrane Integrity Assay reagent (Promega) at the indicated time points.

[12] = Diabetic rat model, 1-week oral treatment: serum glucose; format: in vivo; details: diabetic rats, 100 mg/kg oral once/day for 7 days
From the text: The purpose of the following was to establish an in vivo model of excessive collagen degradation to be used to test efficacy of the compounds of the subject invention. Male Sprague-Dawley rats (typically 300-400 gms of body weight), specific viral antibody free, were ordered from Charles River. Following general anesthesia via isoflurane anesthetic inhalation, diabetes was induced by an I.V. administration of streptozotocin (STZ) (50* mg/kg body weight) (Sigma Chemical Co., St Louis, Mo., USA) diluted in 0.9% citrated saline (pH 4.5), after 12 hours of fasting. After the streptozotocin injection, the animals were given free access to water and food. […] In this test, the test-paper color changes to dark brown which indicates glycosuria.
The latter assays were carried out using Western blot analysis with monoclonal antibodies to MMP-8.

[13] = molecular target: chromatographically-purified MMP-2 (Homo sapiens (Human), UniProt P08253); assay: MMP-2 inhibition in vitro, octapeptide/HPLC; format: biochemical
chromatographically-purified MMP-2, sequence (P08253 110-660): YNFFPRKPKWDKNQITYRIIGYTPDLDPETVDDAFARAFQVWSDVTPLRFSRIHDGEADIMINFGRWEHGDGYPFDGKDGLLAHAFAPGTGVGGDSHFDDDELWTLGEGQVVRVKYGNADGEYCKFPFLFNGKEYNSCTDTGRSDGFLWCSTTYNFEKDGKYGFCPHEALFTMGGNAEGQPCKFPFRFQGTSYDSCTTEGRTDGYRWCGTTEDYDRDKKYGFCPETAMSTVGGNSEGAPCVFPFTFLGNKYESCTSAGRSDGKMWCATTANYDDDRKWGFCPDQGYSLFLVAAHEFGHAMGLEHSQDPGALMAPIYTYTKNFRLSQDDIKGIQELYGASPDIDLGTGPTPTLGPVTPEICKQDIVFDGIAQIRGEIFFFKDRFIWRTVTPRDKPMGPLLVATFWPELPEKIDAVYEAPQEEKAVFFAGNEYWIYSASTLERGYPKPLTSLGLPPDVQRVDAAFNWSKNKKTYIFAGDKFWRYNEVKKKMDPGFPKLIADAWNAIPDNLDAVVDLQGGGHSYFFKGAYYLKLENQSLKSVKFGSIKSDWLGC

[14] = molecular target: MMP-2 (Rattus norvegicus (Rat), UniProt P33436); assay: Diabetic rat model, 3-week oral treatment: skin MMP-2 by ELISA; format: in vivo; details: both low and high doses, 3 weeks
Method: as §1

[15] = tested on: p38 MAP kinase; assay: p38 MAP kinase activation; format: cell-based, human; details: preliminary studies
[16] = tested on: human monocytes; assay: Cytotoxicity in human monocytes (MTS); format: cell-based; remark: listed apart in the source
Method: Briefly, human peripheral blood monocytes (HMs) were isolated from a leukocyte concentrate by density gradient centrifugation (Lymphoprep) and the isolated HMs cultured (2 h, 37° C.) to remove non-adherent cells. The adherent HMs were cultured for 18 h (1×10^6 cells/well, 24-well plates)±endotoxin (LPS)±different compounds dissolved in DMSO (the final concentration of DMSO in the RPMI serum-free culture media with Pen./Strep. antibiotics was no greater than 0.5%). After incubation, the proinflammatory cytokines, TNFα, IL-1β, MCP-1 and IL-6 were measured in the conditioned media by ELISA and cytotoxicity was assessed by measuring the absorbance (490 nm) of formazan produced by reduction of MTS. The HMs alone ±0.1-0.5% DMSO produced minimal levels of these pro-inflammatory cytokines. However, addition of 100 ng/ml or 10 μg/ml of LPS both dramatically stimulated cytokine production.

[17] = Solubility in aqueous solutions; format: physicochemical
[18] = tested on: MCP-1, TNFα, VEGF; assay: Cytokine and growth factor levels in LPS-challenged human monocytes, Luminex multiplex; format: cell-based; details: 2 μM, FIG. 2
Method: The cytokine levels were measured by Luminex multiplex, a method that allows the simultaneous measurement of different biological markers.

[19] = molecular target: MMP-9 generated by PC-3 human prostate cancer cells (Homo sapiens (Human), UniProt P14780); assay: MMP-9 in conditioned media of PC-3 cells, gelatin zymography and Western blot; format: cell-based; details: 10 μM and 20 μM, 48 hr, serum-free media
Method: Compound 1 was evaluated in a cell culture model of cancer. […] After the incubation, aliquots of the conditioned media were assayed for MMP-9 (gelatinase B) by either of two techniques, gelatin zymography (in the presence of 2 or 10 mMCa^++) and Western blot (both assays used purified MMP-9, 92 kDa gelatinase, as a standard).

[20] = molecular target: MMP-2 (72 kDa gelatinase) (Rattus norvegicus (Rat), UniProt P33436); assay: Diabetic rat model, 1-week oral treatment: plasma MMP-2 by gelatin zymography; format: in vivo; details: diabetic rats, 100 mg/kg oral once/day for 7 days
[21] = tested on: caspase-3 activity in neonatal rat ventricular myocytes; assay: Doxorubicin mediated caspase-3 activity; format: cell-based; details: 10 μM, doxorubicin 500 nM, 6 h and 24 h
Method: as §3
Neonatal rat ventricular myocytes, serum starved for 24 h, were treated with the inhibitors 1 h prior to the addition of 500 nM of doxorubicin (Sigma). At the indicated time points cells were washed with ice-cold phosphate buffered saline and lysed using RIPA buffer (Pierce) containing protease and phosphatase inhibitors (Sigma). Caspase-3 activity in the cell lysates was measured by incubation with 7-amino-4-trifluoromethyl coumarin (Enzo).

[22] = tested on: alveolar (periodontal) bone loss in diabetic rats; assay: Diabetic rat model, 3-week oral treatment: alveolar bone loss, morphometric; format: in vivo; details: 3 weeks
Method: as §1
Alveolar bone loss (the signature pathologic event in inflammatory periodontal disease) was assessed in the defleshed jaws of the compound 1-treated (TX) and untreated rats.

In the case of `COC(=O)C(C(=O)/C=C/c1ccc(O)c(OC)c1)C(=O)/C=C/c1ccc(O)c(OC)c1` [Compound 1, 1,7-Bis(4-hydroxy-3-methoxyphenyl)-4-methoxycarbonylhepta-1E,6E-dien-3,5-dione], the “Recovery from human serum” value [1] is reported as 76-80%, the “Description of AEs” value [2] is reported as “Minor inflamed sclera” and the “Incidence of Adverse Events (AEs)” value [2] is reported as 1/6. For the same compound, the “Effect on blood glucose and hemoglobin A1c levels” value [3] was “no significant effect”, the “Cytotoxicity Monocytes @ 5 h incubation” value ([4]; 2 uM) was 2 uM- 0% and the “Cytotoxicity Monocytes @ 5 h incubation” value ([4]; 10 uM) was 10 uM- 0%. The “Cytotoxicity Monocytes @ 5 h incubation” value ([4]; 25 uM) was 25 uM- 33%, the IC50 ([5]; Example 7 experiment, 1 mM Ca++, 37° C., read-out: IC50, human neutrophil collagenase (MMP-8)) was 10 µM and the “IC50 against purified hMMP-8” value ([5]; Table 1 experiments) was “equivalent to that of 1,10-O-phenanthroline”. For the same compound, the IC50 ([5]; Table 1 experiments, read-out: IC50 against purified hMMP-8) was 35 µM, the IC50 [6] was 16 µM and the “Plasma MMP-9 level” value [7] was “reduced the excessive levels of MMPs to essentially normal levels”. The “Pro- and activated-forms of MMP-2 in gingiva” value [8] was “neither diabetes nor compound 1 appeared to have a detectable effect”, the “Reduction of IL-1β in gingiva vs untreated diabetic” value ([9]; higher oral dose (500 mg/kg)) was 95% and the “Reduction of IL-1β in gingiva vs untreated diabetic” value ([9]; lower oral dose (100 mg/kg)) was “about 18%”. For the same compound, the “MMP-9 level in gingiva” value [10] was “reduced MMP-9 to the undetectable levels”, the LDH release ([11]; 6 h) was 24286±930 and the “Effect on LDH release” value ([11]; 24 h) was “less dramatic effect”. For the same compound, the “Effect on severity of hyperglycemia (serum glucose)” value [12] was “no effect on the severity of hyperglycemia”, the “Maximum Inhibition @ 100 μM, MMP-2” value ([13]; 100 μM) was 78% and the IC50 ([13]; read-out: IC50 MMP-2) was 48 µM. For the same compound, the “Reduction of elevated MMP-2 level in skin (ELISA)” value [14] was 28%, the “Effect on p38 MAP kinase activation” value [15] was “little/no effect” and the “Cytotoxicity Monocytes @ 18 h incubation” value ([16]; 25 uM) was 25 uM- 45.5%. For the same compound, the “Cytotoxicity Monocytes @ 18 h incubation” value ([16]; 50 uM) was 50 uM- 53%, the “Solubility in aqueous solutions (comparative)” value [17] was “more soluble than the insoluble natural product curcumin” and the “Reduction of proinflammatory cytokines and growth factors (MCP-1, TNFα, VEGF)” value [18] was “potent in reducing proinflammatory cytokines such as MCP-1 and TNFα and growth factors such as VEGF”. The “Production and/or activity of MMP-9” value [19] was “inhibited the production and/or activity of MMP-9”, the “Plasma MMP-2 level” value [20] was “reduced the excessive levels of MMPs to essentially normal levels” and the “Effect on caspase-3 activity mediated by doxorubicin” value [21] was “None of the MMP inhibitors, including compound 1, negatively modulate caspase-3 activity”. For the same compound, the “Reduction in alveolar bone loss vs untreated groups” value ([22]; 100 mg/kg oral, p<0.05) was ~60% and the “Reduction in alveolar bone loss vs untreated groups” value ([22]; 500 mg/kg oral) was “less effective”.
